We go through 15 molecules from patent US11814376B2, “Hepatitis b core protein modulators” (Assembly Biosciences, Inc., priority 2015, dated 2023).

In one data set the test system is AD38 cells. The experiment in a line: Viability of AD38 cells (Promega CellTiter-Glo). The data set is classed as cell-based. The settings on record: 10 μM compound, 6 days, CellTiter-Glo luminescence normalized to DMSO control (100%). The essentials: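 AD38 cells were seeded at 50,000/well on collagen-coated plates and treated with compound added as a 10× solution in 10% DMSO for 6 days at 37° C. Viability was measured by CellTiter-Glo luminescence in tetracycline-free medium with 2% FBS and 1% DMSO, and expressed as percent of DMSO control.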
Background: Cellular ATP, detected with luciferase, serves as a proxy for viable cell number.

The test system of data set [1] is HBV viral load in AD38 cells. The experiment in a line: Viral load production in AD38 cells, quantitative PCR of the core sequence in supernatant. Type of data set: cell-based. The settings on record: 10 μM compound, 6 days at 37° C., supernatant qPCR, relative to DMSO control; for activity at 10 µM: Hepatitis B virus, 144 h, read-out: AD38 Viral Load (%) (VL with cmpd/VL in DMSO control) at 10 μM. For orientation: Real-time PCR tracks product formation cycle by cycle.

In the case of `O=C(NCc1cnc(-c2ccc(SCCCN3CCOCC3)cc2)s1)c1ccc2c(c1)NC(=O)c1ccccc1S2(=O)=O` [compound 11066, N-((2-(4-((3-morpholinopropyl)thio)phenyl)thiazol-5-yl)methyl)-11-oxo-10, 11-dihydrodibenzo [b, f] [1, 4] thiazepine-8-carboxamide 5,5-dioxide], the “AD38 Viability Normalized Result (cmpd/DMSO %) at 10 μM” value with AD38 cells came to 104%. The activity at 10 µM in data set [1] was found to be 0.4%.

In the case of `CC(=O)NCCCSc1ccc(-c2ncc(CNC(=O)c3ccc4c(c3)NC(=O)c3ccccc3S4(=O)=O)s2)cc1` [compound 11067, N-((2-(4-((3-acetamidopropyl)thio)phenyl)thiazol-5-yl)methyl)-11-oxo-10, 11-dihydrodibenzo [b, f] [1, 4] thiazepine-8-carboxamide 5,5-dioxide], the “AD38 Viability Normalized Result (cmpd/DMSO %) at 10 μM” value in the data set on AD38 cells is 99%. Further, in data set [1], the activity at 10 µM worked out at 2.5%.

For the molecule `CCN(CC)CCCOc1ccc(-c2ncc(CNC(=O)c3ccc4c(c3)NC(=O)c3ccccc3S4(=O)=O)s2)cc1` [compound 11073], the “AD38 Viability Normalized Result (cmpd/DMSO %) at 10 μM” value in the data set on AD38 cells stood at 94%. In data set [1], the activity at 10 µM is 2.2%.

With `Cc1c(C(=O)NCc2cnc(-n3cccn3)s2)ccc2c1NC(=O)c1ccccc1S2(=O)=O` [compound 11074], the “AD38 Viability Normalized Result (cmpd/DMSO %) at 10 μM” value in the data set on AD38 cells came out at 103%. The “AD38 Viral Load (%) (VL with cmpd/VL in DMSO control) at 10 μM” value in data set [1] came out at 0.6%.

With `Cc1c(C(=O)NCc2cnc(-c3ccccn3)s2)ccc2c1NC(=O)c1ccccc1S2(=O)=O` [compound 11077], the “AD38 Viability Normalized Result (cmpd/DMSO %) at 10 μM” value in the data set on AD38 cells came to 90%. Moreover, the activity at 10 µM in data set [1] was determined as 0.9%.

For `O=C(NCc1cnc(C(F)(F)F)s1)c1ccc2c(c1)NC(=O)c1ccccc1N2CCO` [compound 11078], the “AD38 Viability Normalized Result (cmpd/DMSO %) at 10 μM” value with AD38 cells was 96%. For the same molecule, the activity at 10 µM in data set [1] worked out at 45.7%.

On to `N#Cc1ccc(-c2ncc(CNC(=O)c3ccc4c(c3)NC(=O)c3ccccc3N4CCO)s2)c(F)c1` [compound 11079], for which, in the data set on AD38 cells, the “AD38 Viability Normalized Result (cmpd/DMSO %) at 10 μM” value is 102%. Moreover, in data set [1], the activity at 10 µM worked out at 3.3%.

For the molecule `CC(CCN(C)C)Oc1ccc(-c2ncc(CNC(=O)c3ccc4c(c3)NC(=O)c3ccccc3S4(=O)=O)s2)cc1` (stereo not drawn) [compound 11080], the “AD38 Viability Normalized Result (cmpd/DMSO %) at 10 μM” value in the data set on AD38 cells is 84%. In data set [1], the activity at 10 µM was 1.4%.

For `O=C1Nc2c(ccc(C(=O)NCc3cnc(C(F)(F)F)s3)c2Cl)S(=O)(=O)c2ccccc21` [compound 11082], the “AD38 Viability Normalized Result (cmpd/DMSO %) at 10 μM” value in the data set on AD38 cells is reported as 95%. Also, the activity at 10 µM in data set [1] was found to be 1.2%.

As to `N#Cc1ccc(-c2ncc(CNC(=O)c3ccc4c(c3Cl)NC(=O)c3ccccc3S4(=O)=O)s2)c(F)c1` [compound 11083], the “AD38 Viability Normalized Result (cmpd/DMSO %) at 10 μM” value with AD38 cells turned out to be 62%. In addition, the activity at 10 µM in data set [1] came to 0.8%.

`CN(C)CC(O)COc1ccc(-c2ncc(CNC(=O)c3ccc4c(c3)NC(=O)c3ccccc3S4(=O)=O)s2)cc1` (stereo not drawn) [compound 11085]: the “AD38 Viability Normalized Result (cmpd/DMSO %) at 10 μM” value with AD38 cells is recorded as 88%. Besides, the activity at 10 µM in data set [1] worked out at 3.4%.

In the case of `CCN(CC)CC(O)COc1ccc(-c2ncc(CNC(=O)c3ccc4c(c3)NC(=O)c3ccccc3S4(=O)=O)s2)cc1` (stereo not drawn) [compound 11086], the “AD38 Viability Normalized Result (cmpd/DMSO %) at 10 μM” value in the data set on AD38 cells was determined as 88%. In addition, the activity at 10 µM in data set [1] worked out at 4.7%.

Turning to `CC(C)N(C)CC(O)COc1ccc(-c2ncc(CNC(=O)c3ccc4c(c3)NC(=O)c3ccccc3S4(=O)=O)s2)cc1` (stereo not drawn) [compound 11087], the “AD38 Viability Normalized Result (cmpd/DMSO %) at 10 μM” value in the data set on AD38 cells was 103%. The activity at 10 µM in data set [1] worked out at 7.1%.

As to `CC(C)N(C)CCCOc1ccc(-c2ncc(CNC(=O)c3ccc4c(c3)NC(=O)c3ccccc3S4(=O)=O)s2)cc1` [compound 11091], the “AD38 Viability Normalized Result (cmpd/DMSO %) at 10 μM” value in the data set on AD38 cells is given as 89%. For the same molecule, in data set [1], the activity at 10 µM came to 1.3%.

For the molecule `CN(CCCOc1ccc(-c2ncc(CNC(=O)c3ccc4c(c3)NC(=O)c3ccccc3S4(=O)=O)s2)cc1)C1CC1` [compound 11092], in the data set with AD38 cells, the “AD38 Viability Normalized Result (cmpd/DMSO %) at 10 μM” value worked out at 101%. For the same molecule, the activity at 10 µM in data set [1] stood at 0.5%.
